Laboratory results from US9676771B2, “Compounds for inhibiting drug-resistant strains of HIV-1 integrase” (priority 2013, dated 2017).
Where two headings read alike, the source gives them in different places.

Experiments:
[1] = system: HIV-1 constructs containing wild-type IN; assay: microbe, parasite or virus in culture; format: cell-based
[2] = system: HIV-1 constructs containing mutant IN H51Y/R263K; assay: Single-round HIV-1 infectivity assay, IN double mutant H51Y/R263K; format: cell-based; details: Human immunodeficiency virus 1; Table 8; read-out: EC50 (nM, IN mutants) H51Y/R263K
Protocol: (§1) Single-Round HIV-1 Infectivity Assay.
(§2) Human embryonyl kidney cell culture cell line 293 was acquired from the American type Culture Collection (ATCC).
(§3) […]. […] The virus-containing supernatants were then harvested, clarified by low-speed centrifugation, filtrated, and diluted for preparation in infection assays. […] After compound incorporation and activation in the cell, 100 μL of virus-stock diluted to achieve a maximum luciferase signal between 0.2 and 1.5 RLUs was added to each well and further incubated at 37° C. for 48 hrs. […] Activity was normalized to infectivity in the absence of target compounds. KaleidaGraph (Synergy Software, Reading, Pa.) was used to perform regression analysis on the data. EC50 values were determined from the fit model.
(§4) pNLNgoMIVR^−ΔEnv.LUC has been described previously (Zhao et al. 2008). The integrase codon reading frame was removed from pNLNgoMIVR^−ΔEnv LUC (between KpnI and SalI sites) and placed between the KpnI and SalI sites of pBluescript II KS+. Using that construct as the wild-type template, we prepared the following HIV-1 Integrase-resistant mutants via the QuikChange II XL (Stratagene, La Jolla, Calif.) site-directed mutagenesis protocol: H51Y, T66I, E92Q, G118R, Y143R, Q148H, Q148K, N155H, R263K, G140S+Q148H, G140A+Q148K, E138K+Q148K, and H51Y+R263K. The following sense with cognate antisense (not shown) oligonucleotides (Integrated DNA Technologies, Coralville, Iowa) were used in the mutagenesis: H51Y, 5′-[…]-3; T66I, 5′-[…]-3′; E92Q, 5′-[…]-3′; G118R, 5′-[…]-3′; E138K, 5′-[…]-3; G140A, 5′-[…]-3; G140S, 5′-[…]-3′; Y143R, 5′-[…]-3′; Q148H, 5′-[…]-3′; Q148K, 5′-[…]-3; N155H, 5′-[…]-3′; R263K 5′-[…]-3′. The double mutation G140S+Q148H was constructed by using the previously generated Q148H mutant and the appropriate oligonucleotide for the 2nd mutation, G140S. The double mutation G140A+Q148K was made by using the Q148K mutant and the appropriate oligonucleotide for the 2nd mutation, G140A. The double mutation E138K+Q148K was made by using the Q148K mutant and the appropriate oligonucleotide for the 2nd mutation, E138K. The double mutation H51Y+R263K was constructed by using the previously generated H51Y mutant and the appropriate oligonucleotides for the 2nd mutation, R263K. The DNA sequence of each construct was verified independently by DNA sequence determination. The mutant integrase coding sequences from pBluescript II KS+ were then subcloned into pNLNgoMIVR^−ΔEnv LUC (between the KpnI and SalI sites) to produce the full-length mutant HIV-1 Integrase constructs. These DNA sequences were additionally checked independently by DNA sequence determination.

[3] = system: HIV-1 constructs containing mutant IN T66I; assay: Single-round HIV-1 infectivity assay, IN mutant T66I; format: cell-based; details: Human immunodeficiency virus 1; Table 8; read-out: EC50 (nM, IN mutants) T66I
Protocol: as §1, §2, §3, §4

[4] = system: HIV-1 constructs containing mutant IN E92Q; assay: Single-round HIV-1 infectivity assay, IN mutant E92Q; format: cell-based; details: Human immunodeficiency virus 1; Table 8; read-out: EC50 (nM, IN mutants) E92Q
Protocol: as §1, §2, §3, §4

HIV-1 integrase = HIV-1 integrase (Human immunodeficiency virus type 1 group M subtype B, UniProt P12497); assay: biochemical; format: biochemical
Procedure, shortened: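 Compounds or DMSO added to 20 nM DNA and 400 nM integrase in 50 mM MOPS pH 7.2, 7.5 mM MgCl2, 14 mM 2-mercaptoethanol; 2 h at 37° C, quenched with formamide/SDS loading buffer. Products resolved on gels, imaged and quantified by densitometry.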

[5] = system: HIV-1 constructs containing mutant IN H51Y; assay: Single-round HIV-1 infectivity assay, IN mutant H51Y; format: cell-based; details: Human immunodeficiency virus 1; Table 8; read-out: EC50 (nM, IN mutants) H51Y
Protocol: as §1, §2, §3, §4

HIV-1 WT IN = assay: High growth serum assays in cells (WT); format: cell-based
[6] = system: HIV-1 constructs containing mutant IN E138K-Q148K; assay: Single-round HIV-1 infectivity assay, IN double mutant E138K-Q148K; format: cell-based
Protocol: as §1, §2, §3
pNLNgoMIVR^−ΔEnv.LUC has been described previously (Zhao et al. 2008). The integrase codon reading frame was removed from pNLNgoMIVR^−ΔEnv LUC (between KpnI and SalI sites) and placed between the KpnI and SalI sites of pBluescript II KS+. Using that construct as the wild-type template, we prepared the following HIV-1 Integrase-resistant mutants via the QuikChange II XL (Stratagene, La Jolla, Calif.) site-directed mutagenesis protocol: H51Y, T66I, E92Q, G118R, Y143R, Q148H, Q148K, N155H, R263K, G140S+Q148H, G140A+Q148K, E138K+Q148K, and H51Y+R263K. […]

[7] = Human immunodeficiency virus 1, Table 8, WT IN, read-out: EC50 (nM, WT)
[8] = Table 7, 3′-processing, read-out: IC50 (μM) 3′-P
[9] = Table 7, strand transfer, read-out: IC50 (μM) ST
[10] = Human immunodeficiency virus 1, read-out: EC50 (nM), Table 9, WT, normal 5% serum
[11] = Human immunodeficiency virus 1, Table 3, WT IN, read-out: EC50 (nM, WT)
[12] = Table 4, 3′-processing, read-out: IC50 (3^+-Processing)
[13] = Table 4, strand transfer, read-out: IC50 (Strand Transfer)
[14] = Human immunodeficiency virus 1, read-out: EC50 (nM), Table 9, 10% FBS
[15] = Human immunodeficiency virus 1, read-out: EC50 (nM), Table 9, 15% FBS
[16] = Table 10, strand transfer, read-out: IC50 (nM, ST)

Row | SMILES | EC50 [1, 7] | EC50 [2] | EC50 [3] | EC50 [4] | IC50 (HIV-1 integrase; [8]) | IC50 (HIV-1 integrase; [9]) | EC50 [5] | EC50 [1, 10] | EC50 (HIV-1 WT IN; [14]) | EC50 (HIV-1 WT IN; [15]) | further results
1 | CC(=O)OCCCc1cnc2c(c1)c(N)c(C(=O)NCc1ccc(F)cc1F)c(=O)n2O [XZ424, 3-(5-Amino-6-((2,4-difluorobenzyl)carbamoyl)-8-hydroxy-7-oxo-7,8-dihydro-1,8-naphthyridin-3-yl)propyl acetate] | 1.4 nM | 3.9 nM | 0.75 nM | 1.2 nM | 14.3 ± 2.1 µM | 0.0102 ± 0.0016 µM | 0.8 nM |  |  |  | 
2 | Nc1c(C(=O)NCc2ccc(F)cc2F)c(=O)n(O)c2ncc(CCCO)cc12 [XZ423, 4-Amino-N-(2,4-difluorobenzyl)-1-hydroxy-6-(3-hydroxypropyl)-2-oxo-1,2-dihydro-1,8-naphthyridine-3-carboxamide] | 3.1 nM | 14.7 nM | 1.1 nM | 4.8 ± 2 nM | 4.3 ± 0.6 µM | 0.0113 ± 0.0027 µM | 2.6 nM |  |  |  | 
3 | CC(=O)OCCNc1c(C(=O)NCc2ccc(F)cc2F)c(=O)n(O)c2ncccc12 [XZ402, 2-((3-((2,4-difluorobenzyl)carbamoyl)-1-hydroxy-2-oxo-1,2-dihydro-1,8-naphthyridin-4-yl)amino)ethyl acetate] |  |  |  |  |  |  |  | 4.5 ± 1.5 nM | 2.2 ± 0.3 nM | 1 nM | EC50 [1, 11]: 4.5 ± 1.5 nM; Si (selectivity index) ([1]; Table 3, ratio of CC50 to EC50): >25,000; IC50 (HIV-1 integrase; [12]): 5.3 ± 0.5 µM; IC50 (HIV-1 integrase; [13]): 0.027 ± 0.006 µM
4 | Nc1c(C(=O)NCc2ccc(F)cc2F)c(=O)n(O)c2ncc(CCCCCCCCO)cc12 [XZ433, 4-Amino-N-(2,4-difluorobenzyl)-1-hydroxy-6-(8-hydroxyoctyl)-2-oxo-1,2-dihydro-1,8-naphthyridine-3-carboxamide] | 3.7 nM | 22.4 nM | 1.7 nM | 2.6 nM | 32 ± 6 µM | 0.0054 ± 0.0008 µM | 4.8 nM |  |  |  | 
5 | O=C(NCc1ccc(F)cc1F)c1c(O)c2cccnc2n(O)c1=O [XZ351, N-(2,4-difluorobenzyl)-1,4-dihydroxy-2-oxo-1,2-dihydro-1,8-naphthyridine-3-carboxamide] |  |  |  |  |  |  |  |  |  |  | Integrase Mutants KK (E138K-Q148K), fold-change in EC50 relative to WT [6]: 32 x; SI [1]: 22,767; Si (selectivity index) [1]: 22,032; EC50 ([1]; Human immunodeficiency virus 1, Table 2, cells infected with lentiviral vector harboring WT IN, read-out: EC50): 6 nM; EC50 [1, 11]: 6.2 ± 2.9 nM; IC50 (HIV-1 integrase; Table 1, 3′-processing, read-out: IC50 Values 3′-Processing): 1.2 ± 0.2 µM; IC50 (HIV-1 integrase; Table 1, strand transfer, read-out: IC50 Values Strand transfer): 0.055 ± 0.008 µM
6 | Nc1c(C(=O)NCc2ccc(F)cc2F)c(=O)n(O)c2ncc(CCCCCCO)cc12 [XZ426, 4-Amino-N-(2,4-difluorobenzyl)-1-hydroxy-6-(6-hydroxyhexyl)-2-oxo-1,2-dihydro-1,8-naphthyridine-3-carboxamide] | 2.33 nM | 5.2 nM | 0.5 nM | 0.74 nM | 19 ± 1 µM | 0.00059 ± 0.00011 µM | 1.6 nM | 2.3 ± 0.6 nM | 0.8 ± 0.2 nM |  | 
7 | C[C@@H]1CCO[C@H]2Cn3cc(C(=O)NCc4ccc(F)cc4F)c(=O)c(O)c3C(=O)N12 [DTG, dolutegravir, reference compound] | 1.6 nM | 16 nM | 0.9 nM | 2.3 nM |  |  | 3.2 nM |  |  |  | IC50 (HIV-1 integrase; [16]): 0.0124 ± 0.0026 µM
8 | O=C(NCc1ccc(F)cc1F)c1c(NCCO)c2cc(CCCCCO)cnc2n(O)c1=O [XZ437, N-(2,4-Difluorobenzyl)-1-hydroxy-4-((2-hydroxyethyl)amino)-6-(5-hydroxypentyl)-2-oxo-1,2-dihydro-1,8-naphthyridine-3-carboxamide] | 13 nM | 30.9 nM | 1.9 nM | 6.5 nM | 4 ± 0.5 µM | 0.0025 ± 0.0002 µM | 10.8 nM |  |  |  | 
9 | Nc1c(C(=O)NCc2ccc(F)cc2F)c(=O)n(O)c2ncc(CCCCCO)cc12 [XZ419, 4-Amino-N-(2,4-difluorobenzyl)-1-hydroxy-6-(5-hydroxypentyl)-2-oxo-1,2-dihydro-1,8-naphthyridine-3-carboxamide] | 1.3 nM | 2.6 nM | 0.93 nM | 3.8 nM | 8.2 ± 1.2 µM | 0.0027 ± 0.0004 µM | 3.8 nM | 1.3 ± 0.2 nM | 0.93 ± 0.2 nM | 2.1 ± 0.4 nM | 
10 | COC(=O)CNc1c(C(=O)NCc2ccc(F)cc2F)c(=O)n(O)c2ncccc12 [XZ379, Methyl 2-((3-((2,4-difluorobenzyl)carbamoyl)-1-hydroxy-2-oxo-1,2-dihydro-1,8-naphthyridin-4-yl)amino)acetate] |  |  |  |  |  |  |  | 3.8 ± 1.2 nM | 5 nM | 1 nM | EC50 [1, 11]: 3.8 ± 1.2 nM; Si (selectivity index) ([1]; Table 3, ratio of CC50 to EC50): >25,000; IC50 (HIV-1 integrase; [12]): 0.71 ± 0.1 µM; IC50 (HIV-1 integrase; [13]): 0.021 ± 0.011 µM
11 | COC(=O)CCc1cnc2c(c1)c(NCCO)c(C(=O)NCc1ccc(F)cc1F)c(=O)n2O [XZ438, Methyl 3-(6-((2,4-difluorobenzyl)carbamoyl)-8-hydroxy-5-((2-hydroxyethyl)amino)-7-oxo-7,8-dihydro-1,8-naphthyridin-3-yl)propanoate] | 4.1 ± 1 nM | 2.5 nM | 0.62 nM | 2.7 nM | 3.2 ± 0.3 µM | 0.0031 ± 0.0003 µM | 6.9 nM |  |  |  | 
12 | COC(=O)CCc1cnc2c(c1)c(N)c(C(=O)NCc1ccc(F)cc1F)c(=O)n2O [XZ434, Methyl 3-(5-amino-6-((2,4-difluorobenzyl)carbamoyl)-8-hydroxy-7-oxo-7,8-dihydro-1,8-naphthyridin-3-yl)propanoate] | 0.67 nM | 2.4 nM | 0.53 nM | 2 ± 1.1 nM | 2.9 ± 0.6 µM | 0.0018 ± 0.0002 µM | 0.63 nM | 0.7 ± 0.2 nM | 0.62 ± 0.2 nM | 0.6 nM | 
13 | O=C(NCc1ccc(F)cc1F)c1c(O)c2c(CO)ccnc2n(O)c1=O [XZ440, N-(2,4-Difluorobenzyl)-1,4-dihydroxy-5-(hydroxymethyl)-2-oxo-1,2-dihydro-1,8-naphthyridine-3-carboxamide] | 7.3 nM | 9 ± 0.6 nM | 1.4 nM | 4 ± 0.6 nM |  |  | 5 nM |  |  |  | IC50 (HIV-1 integrase; [16]): 0.0145 ± 0.0008 µM
